Data: US10106523B2, “Amide compound” (ASTELLAS PHARMA INC., priority 2014, dated 2018)

Target: T1, rat EP1 receptor (Rattus norvegicus, UniProt P70597)
T1 construct: expressed in transfected cells
T1 sequence (P70597 1-405): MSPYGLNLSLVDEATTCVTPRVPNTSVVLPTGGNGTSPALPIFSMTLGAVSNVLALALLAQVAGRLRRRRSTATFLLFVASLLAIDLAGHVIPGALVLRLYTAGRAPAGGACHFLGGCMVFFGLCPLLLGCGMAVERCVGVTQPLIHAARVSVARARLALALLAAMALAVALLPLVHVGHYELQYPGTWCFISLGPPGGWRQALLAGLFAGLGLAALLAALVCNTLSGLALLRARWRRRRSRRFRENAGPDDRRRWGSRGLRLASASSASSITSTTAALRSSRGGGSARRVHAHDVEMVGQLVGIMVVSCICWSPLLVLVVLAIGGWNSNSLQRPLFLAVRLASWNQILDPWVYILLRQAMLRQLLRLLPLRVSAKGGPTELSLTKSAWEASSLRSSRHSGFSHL
Assay: Selectivity test: antagonistic action on rat EP1 receptor (intracellular Ca2+, HEK-293 cells)
Assay type: cell-based
Conditions: PGE2 100 nmol/L, HEK-293 cells stably expressing rat EP1; read-out: Concentration up to which no inhibitory action of 50% or more on the increase in intracellular Ca2+ concentration due to PGE2 through the rat EP1 receptor
Protocol: Test Example 9: Evaluation Test of Receptor Antagonistic Action on Rat EP1/EP2/EP3 Receptor (Selectivity Test)
The antagonistic action of Compound A on other subtypes ([…], EP2, and EP3) of the rat-derived PGE2 receptor was evaluated. For EP1 and EP3, the intracellular Ca^2+ amount was used as an indicator, and for EP2, the intracellular cAMP amount was used as an indicator, so as to investigate the action of the test compound.
Construction of Rat EP1, EP2, or EP3 Receptor Expressing Vector: A rat EP1 receptor gene (GenBank accession No.: D88751.1), a rat EP2 receptor gene (GenBank accession No.: NM_031088.1), or a rat EP3 receptor gene (GenBank accession No.: NM_012704.1) were inserted respectively into an expression vector pcDNA3.1-V5-His-TOPO (Invitrogen Inc.).
Construction of Cell Stably Expressing Rat EP1, EP2, or EP3 Receptor: […]
The intracellular Ca^2+ concentration was measured using FLIPR tetra (Molecular Devices, LLC.) with the fluorescence intensity of the Dye as an indicator. […] By taking the Ca^2+ concentration when PGE2 was added to a final concentration of 100 nmol/L as 100%, and taking the Ca^2+ concentration when PGE2 was not added as 0%, the Ca^2+ concentration in percentage with a treatment with the compound was calculated.

- IC50: > 10 µM
Structure (SMILES): Cc1nn(Cc2cc3ccccc3cn2)c(C(=O)N[C@@H](C)c2ccc(C(=O)O)cc2)c1Br [Compound A, 4-[(1S)-1-({[4-bromo-1-(isoquinolin-3-ylmethyl)-3-methyl-1H-pyrazol-5-yl]carbonyl}amino)ethyl]benzoic acid]
